How the values were obtained:
NMDA receptor = assay: [3H] MK-801 radioligand binding, rat brain membranes; conditions: 2 nM [3H] MK-801
Experimental: This example describes NMDA receptor binding assays using two different radioligands, [^3H] […] An established binding assay using the non-selective NMDA receptor ligand [^3H] […] The binding assay method using the NR2B selective receptor ligand [^3H] […] This assay serves as a selective measure of NR2B receptor binding activity in native rat brain receptors. Briefly, the brains of Male Wistar rats were homogenized (Polytron) before centrifugation at 40,000×g for 15 minutes at 4° C. After 2 washes, the final pellet was homogenized and stored at −80° C. The protein concentration was determined by Bradford assay.
Test compounds were solubilized at 10 mM in DMSO. Then the dilutions were performed with a constant solvent concentration (1% DMSO) in the assay.
After incubation for 4.5 h at room temperature, the assays were filtered on GF/B filters pretreated with 0.3% (v/v) PEI with a Brandel system for [^3H] […] The experiment was performed in duplicate (n=2).

hERG channel = hERG channel (Homo sapiens (Human), UniProt Q12809); assay: hERG channel inhibition, whole cell patch clamp in HEK293 cells; format: cell-based
Chain of hERG channel (Q12809 whole entry): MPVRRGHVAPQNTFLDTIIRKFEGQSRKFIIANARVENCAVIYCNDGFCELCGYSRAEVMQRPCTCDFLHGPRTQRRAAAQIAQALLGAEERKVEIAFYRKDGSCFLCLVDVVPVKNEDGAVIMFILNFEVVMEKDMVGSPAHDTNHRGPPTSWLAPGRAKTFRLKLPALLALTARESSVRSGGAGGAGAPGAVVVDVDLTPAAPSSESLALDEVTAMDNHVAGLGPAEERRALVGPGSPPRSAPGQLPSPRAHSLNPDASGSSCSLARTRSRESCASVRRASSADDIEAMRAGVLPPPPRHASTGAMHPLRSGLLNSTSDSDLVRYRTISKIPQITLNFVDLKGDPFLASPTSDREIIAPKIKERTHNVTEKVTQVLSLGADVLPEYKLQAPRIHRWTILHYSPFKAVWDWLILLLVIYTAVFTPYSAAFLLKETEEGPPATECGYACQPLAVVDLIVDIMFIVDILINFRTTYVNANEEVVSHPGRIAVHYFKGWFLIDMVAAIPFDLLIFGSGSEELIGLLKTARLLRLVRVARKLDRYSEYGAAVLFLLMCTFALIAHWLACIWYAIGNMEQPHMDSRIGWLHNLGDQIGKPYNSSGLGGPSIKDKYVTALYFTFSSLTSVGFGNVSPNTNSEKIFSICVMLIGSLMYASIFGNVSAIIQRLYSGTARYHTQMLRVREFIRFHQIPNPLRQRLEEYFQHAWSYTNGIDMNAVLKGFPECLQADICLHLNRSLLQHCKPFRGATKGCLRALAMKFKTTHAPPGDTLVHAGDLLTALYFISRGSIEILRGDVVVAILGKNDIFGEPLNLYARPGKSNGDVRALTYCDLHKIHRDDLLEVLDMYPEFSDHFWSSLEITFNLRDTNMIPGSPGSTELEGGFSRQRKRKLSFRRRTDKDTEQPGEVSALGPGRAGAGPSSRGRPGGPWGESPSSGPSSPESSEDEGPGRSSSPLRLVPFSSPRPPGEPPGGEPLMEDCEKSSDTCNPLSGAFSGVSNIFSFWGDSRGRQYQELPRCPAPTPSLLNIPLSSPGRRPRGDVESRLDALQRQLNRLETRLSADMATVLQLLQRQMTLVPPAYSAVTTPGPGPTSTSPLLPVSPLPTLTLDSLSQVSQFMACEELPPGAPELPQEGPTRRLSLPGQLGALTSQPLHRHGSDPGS
Experimental: The assay was performed on hERG channel stably expressed in HEK293 cells. The cells were cultured at 37° C. in a humidified CO2 incubator in the growth medium consisting of DMEM, 10% fetal bovine serum and antibiotics. Prior to the assay, the cells were seeded onto a 12 mm PDL-coated glass coverslip and cultured in a 35 mm Petri dish. After 16 to 40 hr culture, the cover slip was transferred into the chamber of OctaFlow perfusion system (ALA Instrument) and under a constant flow of extracellular solution (140 mM NaCl, 4 mM KCl, 1 mM MgCl2, 2 mM CaCl2, 10 mM HEPES, 10 mM D-glucose, pH 7.35, osmolarity 290). Whole cell patch clamping was performed with a glass micropipette filled with intracellular solution (120 mM KCl, 1.75 mM MgCl2, 5.4 mM CaCl2, 10 mM HEPES, 10 mM EGTA, and 4 mM ATP-K2, PH 7.2, osmolarity 310). Giga-seal was maintained during the test. The voltage control and current measurement were carried out using Axon amplifier 700B, Digidata 1440A and CLAMPEX10 software (Molecular Devices). Whole-cell hERG currents were recorded following the Petroski protocol: the cell was held at −80 mV, and the voltage step jumped from −80 to 30 mV and stay for 2 sec with a 20 ms prepulse at −40 mV. After depolarization, the voltage was decreased to −40 mV and stay for 2 sec, and returned back to −80 mV. Test compound was applied by quartz capillary tubes tip (200 μm inner diameter), and the flow rate was controlled at 2-3 ml/min with OctaFlow perfusion system. Different concentrations of the compound were applied to the cells for 5 min and the hERG current was measured three times before, during and after compound treatment. The data were analyzed using Clampfit 10 software (Molecular Devices) to generate IC50 values.

[1] = system: pentylenetetrazole (PTZ) induced convulsions; assay: Pentylenetetrazole (PTZ) Seizure Test; format: in vivo; conditions: 10 mg/kg p.o., mesylate salt
Experimental: Rats, placed in individual macrolon cages (25×19×13 cm), were injected with pentylenetetrazole (PTZ) (100 mg/kg s.c.). The occurrence and latency of clonic and tonic convulsions and death were noted over a 30 minute period. 15 rats were studied per group. The test was performed blind. […]
Compounds were evaluated typically using 0.5% dimethylsulfoxide, 4% hydroxypropyl-b-cyclodextrin water as a vehicle at 1 or more doses (e.g., 1, 3 and 10 mg/kg), administered p.o. 30 minutes before PTZ, and compared with a vehicle control group. Diazepam (16 mg/kg p.o.), administered 60 minutes before PTZ, was used as reference substance. The experiment was performed over 2 separate sub-experiments with N=7 to 8 animals per group and per sub-experiment. Quantitative data (latencies) with the test substance was analyzed by comparing treated groups with vehicle control using Kruskal-Wallis test followed by Mann-Whitney U test. Quantitative data with the reference substance was analyzed using Mann-Whitney U test. Quantal data (frequencies) was analyzed by comparing treated groups with vehicle control using Fisher's Exact Probability tests (*=p<0.05; **=p<0.01; ***=p<0.001).

[2] = system: 6 Hz electrically induced seizures; assay: 6 Hz Seizure Test; format: in vivo; conditions: for forelimb seizure score, change vs vehicle control: mice
Experimental: Mice were administered a rectangular current (44 mA, rectangular pulse: 0.2 ms pulse width, 3 s duration, 6 Hz) via corneal electrodes connected to a constant current shock generator (Ugo Basile: type 7801). The results for the number of seizures as reflected by forelimb clonus were recorded during the first minute following current administration. Forelimb clonus was scored as absent (0), mild (1) and strong (2). 15 mice were studied per group. The test was performed partially blind (test substance vs vehicle). […] Quantitative data (scores) with the test substance was analyzed by comparing treated groups with vehicle control using Kruskall-Wallis test followed by Mann-Whitney U tests.

[3] = system: formalin-induced nociceptive behavior; assay: Rat Formalin Model; format: in vivo; conditions: rats, 10, 30 and 60 mpk i.p., mesylate salt
Experimental: The rat formalin model is a tonic model of continuous pain resulting from formalin-induced spontaneous nociceptive behaviors. Intra-paw injection of formalin is a commonly used model to measure spontaneous nociceptive behaviors in rodents (Dubuisson, D. and Dennis, S. G. Pain 4:161, 1977). Subcutaneous plantar injection of formalin causes a bi-phasic nocifensive behavioral response in rodents. The early phase (phase-1) lasts for about 5-10 min following which an interphase occurs without any discernible nociceptive reactions after which the late phase (phase-II) nociceptive reaction ensues continuing from about 20-60 min following formalin injection. Formalin model is a model of tonic, persistent pain, and is widely used for rapid screening of novel analgesic compounds. […] In the present example, effects of test item were assessed in 0-5 minutes from the early phase (phase-I) and 20-35 minutes from the late phase (phase-II) of formalin-induced nociceptive behavior. […]
For all groups, animals were acclimated to the observation chamber for 15 minutes immediately prior to formalin injection. All animals received an intraplantar subcutaneous injection of 50 μL of 5% formalin into the left hind paw and then placed immediately into an observation chamber and formalin-evoked spontaneous nociceptive behaviors in the rats were continuously recorded for 0-60 min using a commercial camcorder. […]

Structure (SMILES): Cc1ccc(COC(=O)N2CC[C@H](CNc3nccn4cnnc34)C(F)(F)C2)cc1 [Compound E1-1.2, (+)-R-4-methylbenzyl 4-(([1,2,4]triazolo[4,3-a]pyrazin-8-ylamino)methyl)-3,3-difluoropiperidine-1-carboxylate]
- partial effect on [3H] MK-801 binding (NMDA receptor): 40%
- hERG @ 10 μM (%) (hERG channel; 10 μM): 17%
- IC50 (hERG channel; HEK293, whole cell patch clamp): 40 µM
- number of rats showing tonic convulsions, change vs vehicle controls [1]: −82%
- latency to clonic convulsions, change vs vehicle controls ([1]; rats): +72%
- latency to death, change vs vehicle controls ([1]; rats): +35%
- latency to tonic convulsions, change vs vehicle controls ([1]; rats): +39%
- number of deaths, change vs vehicle controls ([1]; rats): −91%
- number of mice with Straub tail, change vs vehicle control ([2]; 10 mg/kg p.o., NS): −13%
- number of mice with Straub tail, change vs vehicle control ([2]; 30 mg/kg p.o.): −40%
- forelimb seizure score, change vs vehicle control ([2]; 10 mg/kg p.o. 30 minutes before the test): −50%
- forelimb seizure score, change vs vehicle control ([2]; 30 mg/kg p.o. 30 minutes before the test): −70%
- cumulative time spent on nociceptive behavior in phase I (0-5 mins) [3]: decreased
- cumulative time spent on nociceptive behavior in phase II (20-35 mins) [3]: decreased

From US10294230B2, “3,3-difluoropiperidine carbamate heterocyclic compounds as NR2B NMDA receptor antagonists” (Rugen Holdings (Cayman) Limited, priority 2015, dated 2019)
